Data taken from patent US11564913B2, “Compositions and methods for treating cancer” (Children's Hospital Medical Center, priority 2019, dated 2023).

Legend:
Assay in all cases: Spheroid formation, hanging drop method
Type in all cases: cell-based
MCF7 cells = conditions: 1 μM
Experimental: (§1) FIG. 6: IODVA1 inhibits cell-substratum and cell-cell interactions. (A) IODVA1 impedes spreading of MCF7 and MDA-MB-231 cells on fibronectin. MCF7, T47D, and MDA-MB-231 cells were incubated on fibronectin coated coverslips for 10 min, then further incubated with the indicated concentrations of IODVA1 for 30 min in serum-free media, fixed and observed by bright field microscopy. Areas of single cells were calculated from 6 random fields (no less than 300 cells total per treatment group). Results shown are mean±s.e.m. of a single experiment and are representative of three independent experiments. (B) Effects of IODVA1 treatment on spheroid formation in MCF10A, MCF7, T47D, and MDA-MB-231 cells. Left panel—representative bright field images of hanging drop cultures of MCF10A, MCF7, T47D, and MDA-MB-231 cells grown in the absence (0 μM) and presence of IODVA1 (1 μM) prior to and post mechanical pipetting (trituration). Scale bar=200 μm. Right panel, changes in spheroid/aggregate size due to IODVA1 treatment indicated by the diameter of the spheroids. Results shown are mean±stdev, N=15. (C) IODVA1 treatment reduces proliferation capacity in adhesion-free environment. MCF7, T47D, and MDA-MB-231 cells were grown in complete media in the presence of IODVA1 or vehicle control in ultra-low attachment plates for 5 days. Aggregates and spheroids were dissociated with accutase and trituration, and the number of live cells was determined by trypan blue exclusion. Results shown are combined mean±stdev of two independent experiments. n.s.—not significant, *-p<0.05, **-p<0.01, ***-p<0.001, ****-p<0.0001.
(§2) In vitro 3D assays, such as spheroid formation, serve as an intermediate between 2D (monolayer) cellular assays and in vivo animal models. Spheroid formation is mediated by matrix development and remodeling and changes in the cytoskeleton and cell-cell contacts and adhesion. To evaluate the effect of IODVA1 on spheroid formation, single cell suspension were plated in complete media containing vehicle control or IODVA1 at 0.1-3 μM range using the hanging drop and ultra-low attachment (ULA) methods (Foty R. 2011). […]
(§3) Spheroids were formed by the hanging drop method or using ultra-low attachment (ULA) plates (Corning). […] Spheroid formation was monitored daily and imaged using EVOS microscope (Life Technologies). For assessment of attachment-free proliferation, the contents of the well were transferred into an Eppendorf tube, centrifuged at 100×g for 5 min, dissociated into a single cell suspension using trituration and Accutase (Invitrogen) treatment at room temperature and counted using trypan blue exclusion.

MCF10A cells = system: MCF10A cells
Experimental: as §1, §2, §3

T47D cells = conditions: 1 μM
Experimental: as §1, §2, §3

Question: Which “spheroids after mechanical disruption by pipetting” value (MCF7 cells) does the source give for OC1(c2ccccn2)N=C(Nc2nc3ccccc3[nH]2)N=C1c1ccccn1 (stereo not shown) [IODVA1, (Z)-2-((1H-benzo[d]imidazol-2-yl)imino)-4,5-di(pyridin-2-yl)-2,5-dihydro-1H-imidazol-5-ol] here?
Answer: Its value is “complete dissociation”.

Question: And the spheroid size (MCF7 cells; 96 h)?
Answer: The spheroid size was “formed smaller spheroids”.

Question: And the effect on spheroids (MCF10A cells)?
Answer: The effect on spheroids was “No effect”.

Question: What about the spheroid formation (T47D cells) of the same compound?
Answer: Its spheroid formation is “failed to form packed spheroids”.
